Assay [1] has as its system Mycobacterium tuberculosis. Kind of assay: Antitubercular activity against Mycobacterium tuberculosis H37Rv at 6.25 ug/ml. The format is functional, organism-based.
Assay [2] has as its target Cyclin-dependent kinase 1/cyclin B1 (Homo sapiens) (UniProt P06493+P14635). Kind of assay: Inhibition of Cdc2/cyclin B. The format is protein-complex assay.
For assay [3], the system named is M-phase inducer phosphatase (Cdc25). Kind of assay: Inhibition of Cdc25.
A further assay concerns Plasmodium falciparum. Kind of assay: Antimalarial activity as Plasmodium falciparum DNA by PicoGreen microfluorimetry. The format is functional, organism-based.
In a further assay the test system is MCF. Nature of the assay: Cytotoxicity against human MCF cells at 100 uM. The format is functional, cell-based.
Another assay relates to NCI-H460. Kind of assay: Cytotoxicity against human NCI-H460 cells at 100 uM. The format is functional, cell-based.
A further assay has as its system SF-268. Kind of assay: Cytotoxicity against human SF268 cells at 100 uM. The format is functional, cell-based.

Molecules are shown by their SMILES. ≈ marks a conversion by molar mass, not a printed value. Calls of active or inactive are those of the source. The rule behind the calls is not given here. Some results are limits rather than exact numbers.

Chain of Cyclin-dependent kinase 1/cyclin B1 (Homo sapiens) (P06493 whole entry, looked up): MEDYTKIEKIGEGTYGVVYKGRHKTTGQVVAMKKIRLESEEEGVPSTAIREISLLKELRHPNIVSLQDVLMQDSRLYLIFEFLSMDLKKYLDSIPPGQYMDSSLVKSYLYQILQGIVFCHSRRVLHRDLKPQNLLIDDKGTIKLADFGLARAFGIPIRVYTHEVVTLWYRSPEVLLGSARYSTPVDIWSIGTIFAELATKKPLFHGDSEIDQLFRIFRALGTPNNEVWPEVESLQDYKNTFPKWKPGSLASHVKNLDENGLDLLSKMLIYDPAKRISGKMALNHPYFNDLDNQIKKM
Chain of Cyclin-dependent kinase 1/cyclin B1 (Homo sapiens) (P14635 whole entry, looked up): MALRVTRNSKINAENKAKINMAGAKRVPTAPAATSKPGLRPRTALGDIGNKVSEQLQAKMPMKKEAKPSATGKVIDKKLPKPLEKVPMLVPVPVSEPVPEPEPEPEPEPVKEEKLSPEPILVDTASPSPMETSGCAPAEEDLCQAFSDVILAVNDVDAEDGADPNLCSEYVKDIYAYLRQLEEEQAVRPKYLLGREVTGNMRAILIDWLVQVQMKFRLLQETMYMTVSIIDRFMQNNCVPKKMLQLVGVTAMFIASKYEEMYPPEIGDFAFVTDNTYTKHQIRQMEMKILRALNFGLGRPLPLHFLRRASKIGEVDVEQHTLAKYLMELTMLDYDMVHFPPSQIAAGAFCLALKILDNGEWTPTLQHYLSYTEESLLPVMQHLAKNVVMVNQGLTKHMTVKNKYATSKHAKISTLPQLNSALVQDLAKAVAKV

`CO[C@@H]1CC[C@]2(C)OC(=O)[C@H](C)C3CC[C@@](C)(OC(C)=O)[C@H]4C(C[C@@]1(C)O)OC2[C@@H]34` (some centres not stated): the result in assay [1], in assay [2] and in assay [3] was inactive.
Consider `CCCC(=O)O[C@]1(C)CCC2[C@@H]3C4OC(C[C@@](C)(O)[C@H](OC)CC[C@]4(C)OC(=O)[C@@H]2C)[C@@H]31` (some centres not stated) [BRIARELLIN P], for which, in the assay with Plasmodium falciparum, the IC50 was 14 µg/mL (≈ 30.9 µM).
On the same count and under the same terms, in the case of `C=C1CC2OC3[C@H]4C(CC[C@@](C)(OC(=O)CCC)[C@@H]24)[C@@H](C)C(=O)O[C@@]3(C)CC[C@H]1OC(C)=O` (some centres not stated) [BRIARELLIN L] it was 8 µg/mL (≈ 17.3 µM).
On the same count and under the same terms, in the case of `CC(C)[C@@H]1CC[C@](C)(O)[C@H]2C3C[C@@]4(C)CCC[C@](C)(O4)C(O3)[C@@H]12` it was 16 µg/mL (≈ 49.6 µM).
Consider `CC(=O)O[C@@]1(C)CC[C@@H](C(C)C)[C@@H]2C3OC(C[C@@]4(C)CCC[C@]3(C)O4)[C@@H]21` [POLYANTHELLIN A], for which, in the assay with Plasmodium falciparum, inhibition was half-maximal at 16 µg/mL (≈ 43.9 µM) (IC50). For the same compound, the result in assay [1] was inactive.
`CC(=O)O[C@]1(C)CCC2[C@@H]3C4OC(C[C@@](C)(O)[C@H](O)CC[C@]4(C)OC(=O)[C@@H]2C)[C@@H]31` (some centres not stated) [BRIARELLIN M] returned an IC50 with Plasmodium falciparum of 22 µg/mL (≈ 53.6 µM).
Same read-out and setting: in the case of `CCCC(=O)O[C@]1(C)CCC2[C@@H]3C4OC(C[C@@](C)(O)[C@H](O)CC[C@]4(C)OC(=O)[C@@H]2C)[C@@H]31` (some centres not stated) [BRIARELLIN O] it was 24 µg/mL (≈ 54.7 µM).
Same read-out and setting: in the case of `C=C1CC2OC3[C@H]4C(CC[C@@](C)(OC(=O)CCC)[C@@H]24)[C@@H](C)C(=O)O[C@@]3(C)CC[C@H]1OO` (some centres not stated) [BRIARELLIN D HYDROPEROXIDE] it was 9 µg/mL (≈ 20.6 µM).
In the assay on Plasmodium falciparum, `CC(=O)O[C@]1(C)CCC2[C@@H]3C4OC(C/C(C)=C\CC[C@]4(C)OC(=O)[C@@H]2C)[C@@H]31` (some centres not stated) [BRIARELLIN J] registered an IC50 above 50 µg/mL.
As to `C=C1CC2OC3[C@H]4C(CC[C@@](C)(OC(C)=O)[C@@H]24)[C@@H](C)C(=O)O[C@@]3(C)CC[C@H]1O` (some centres not stated) [BRIARELLIN K], half-maximal inhibition with Plasmodium falciparum (IC50) was put at 15 µg/mL (≈ 38.2 µM). The result (with MCF; in the assay with NCI-H460; with SF-268; in assay [1]; in assay [2]; in assay [3]) was inactive.
Consider `C=C1CC2OC3[C@H]4C(CC[C@@](C)(OC(C)=O)[C@@H]24)[C@@H](C)C(=O)O[C@@]3(C)CC[C@H]1OO` (some centres not stated) [BRIARELLIN K HYDROPEROXIDE], for which the IC50 with Plasmodium falciparum was 9 µg/mL (≈ 22 µM).
Take `C=C1CC2OC3[C@H]4C(CC[C@@](C)(OC(=O)CCC)[C@@H]24)[C@@H](C)C(=O)O[C@@]3(C)CC[C@H]1O` (some centres not stated) [BRIARELLIN D]: it took 13 µg/mL (≈ 30.9 µM) to reach half-maximal inhibition in the assay with Plasmodium falciparum (IC50). The outcome (in the assay on MCF; in the assay with NCI-H460; with SF-268; in assay [1]; in assay [2]; in assay [3]) was inactive.
